{
  "source": "patent US5164296A",
  "about": "“Assay methods involving ouabain” (priority 1990, dated 1992)",
  "key": {"[1]": {"settings": "6.0 N HCl at 110° C.; cited from earlier work"}, "digoxin antibodies": {"tested_on": "digoxin antibodies", "settings": "cited from earlier work"}, "(Na^+ +K^+)ATPase [2]": {"tested_on": "(Na^+ +K^+)ATPase", "settings": "type II-phosphorylating conditions; cited from earlier work"}, "(Na^+ +K^+)ATPase [3]": {"target": "T1, (Na^+ +K^+)ATPase (Canis lupus familiaris, UniProt P50997)", "T1 construct": "(Na^+ +K^+)ATPase was purified from the outer medulla of dog kidney; from tissue; host or cells: dog kidney outer medulla, purified membrane enzyme", "assay": "Competition for ^3 H-ouabain binding to purified (Na^+ +K^+)ATPase", "set-up": "species or system dog", "settings": "competition for ^3 H-ouabain binding", "procedure": "(§1) More specifically, (Na^+ +K^+)ATPase was purified from the outer medulla of dog kidney using the angle rotor procedure (Jorgensen, P.L., Biochim. Biophys. Acta, 356:36-52 (1974)) and stored frozen at -60° C. at 1.0 mg/ml in 25 mM imidazole-HCl (pH 7.5) and 1.0 mM EDTA, in small aliquots. (Na^+ +K^+)ATPase activity was determined at 37° C. from rate measurements in 1.0 ml of coupled optical assay mixture comprising 20 mM KCl, 100 mM NaCl, 4.5 mM MgSO4, 5.0 mM EGTA, 3.0 mM ATP-Na2, 1.2 mM phosphoenol-pyruvate-tricyclohexylammonium, 0.3 mM NADH, 100 mM TES-Tris (ph 7.4), 5.0 units of lactate dehydrogenase, and 5.0 units of pyruvate kinase (Hamlyn, J.M. et al, Nature, 300:650-652 (1982)). (Na^+ +K^+)ATPase activity was 99% ouabain-inhibitable with activities of 10-18 μmol/min/mg of membrane protein. Maximally effective concentrations of digitalis-like activity had no effect on the enzymatic components of the coupled optical assay as determined by inspection of rates in response to addition of 20-50 μM ADP. The maximal capacity of the coupled optical assay was at least 500-2000 fold greater than the typical maximal hydrolytic rate of the (Na^+ +K^+)ATPase and was not rate limiting under any assay condition described herein.\nCompetition for ^3 H-ouabain (Amersham Corp. or DuPont-New England Nuclear) binding was carried out in 670 μl of binding buffer comprising, in final concentrations, 10 mM TES-Tris (pH 7.4), 0.5 mM EDTA, 5.0 mM MgCl2 and 5.0 mM Na2 HPO4 (hereinafter \"binding buffer\") and 50 nM ouabain containing ^3 H-ouabain tracer, and including the unknown sample. Binding was initiated by addition of 0.1-2 μg of purified (Na^+ +K^+)ATPase and the reaction performed for 2 hr at 37° C. […] Trapped ^3 H-ouabain was determined by scintillation counting, following 12 hr of soaking the filters in 4.0 ml of Beckman Ready Protein ™ scintillation cocktail (Beckman, Palo Alto, Calif.). […] All binding data were corrected for quench, and specific binding was expressed as pmol/mg of enzyme protein. […]"}, "[4]": {"target": "T2, washed human red blood cells (Homo sapiens, UniProt P05023)", "T2 construct": "washed human red blood cells obtained by venipuncture; endogenous in cells; host or cells: washed human red blood cells (venipuncture)", "assay": "Inhibition of ouabain-sensitive ^86 Rb uptake by washed human red blood cells", "assay_type": "cell-based", "procedure": "Fractions from the column were assayed for inhibition of ouabain-sensitive ^86 Rb uptake by washed human red blood cells obtained by venipuncture. This assay was used as an index of sodium transport activity (Hamlyn, J.M. et al, J. Biol. Chem., 264:7395-7404 (1989)).\nMore specifically, freshly washed cells were incubated for 2 hr at 37° C. (16% final hematocrit) in a final volume of 150 μl of flux buffer comprising 150 mM NaCl, 2.0 mM […] containing tracer amounts of ^86 Rb (DuPont--New England Nuclesr), 1.0 mM MgCl2, 1.0 mM Na2 HPO4, 2.0 mM CaCl2, 5.0 mM glucose and 20 mM HEPES-Tris (pH 7.4) (hereinafter \"flux fubber\"). Incubations were initiated by addition of column fractions to the cells. Aliquots were removed at various times and mixed with ice-cold flux buffer lacking ^86 Rb to quench the reactions. The quenched reactions were applied to a silicone oil cushion (Hysol XF1792B, Dexter Corp., Olean, N.Y.) in microcentrifuge tubes and centrifuged at 800×g for 10 min at 4° C. The red cell pellet was cut from deep-frozen tubes and trapped ^86 Rb was determined by γ-counting. Flux data were expressed as nmol of Rb uptake/10^8 cells. In each case, a value of 1.11×10^13 cells/liter was used to convert packed cell volumes to cell number for the flux data calculations. Ouabain-insensitive ^86 Rb uptake was estimated in parallel experiments by inclusion of 1.0 mM ouabain in the flux buffer. Ouabain-sensitive ^86 Rb uptake was taken as the total uptake minus that obtained in the presence of 1.0 mM ouabain.\nThe inhibition of ouabain-sensitive uptake of ^86 Rb was carried out as described above."}, "[5]": {"tested_on": "left atria from guinea pigs", "assay": "Inotropic properties in left atria from guinea pigs", "set-up": "species or system guinea pig", "procedure": "Atria were incubated at 37° C. in phosphate buffered saline comprising 130 mM NaCl, 5.4 mM KCl, 1.8 mM MgCl2, 0.4 mM NaH2 PO4, 19 mM NaHCO3 and 5.4 g of glucose (pH 7.3-7.4), and gassed with 95% O2 /5% CO2. Tissues were stimulated at 1 Hz with twice threshold square pulses (0.8 to 1.0 V) of 0.7 to 1.2 msec duration. Resting tension was optimized for maximum isometric force generation. Control records were obtained once the phasic force was stabilized. […] For comparison, 200 nM plant ouabain evoked an inotropic response of 311±41% (N=4 experiments) which returned to normal with a half-time of approximately 5 min upon washout."}, "[6]": {"assay": "Protein binding in plasma", "assay_type": "in vitro ADME", "settings": "EDLF described in the present invention"}, "(Na^+ +K^+)ATPase [7]": {"target": "T1, (Na^+ +K^+)ATPase", "assay": "Inhibition of (Na^+ +K^+)ATPase activity (coupled optical assay)", "assay_type": "biochemical, dog", "settings": "inhibition of (Na^+ +K^+)ATPase activity", "procedure": "as §1\nThe inhibition of (Na^+ +K^+)ATPase was carried out as described above."}, "[8]": {"tested_on": "catechol-o-methyl transferase (COMT)", "assay": "Substrate for catechol-o-methyl transferase (COMT)", "assay_type": "in vitro ADME", "settings": "EDLF described in the present invention"}, "[9]": {"settings": "50 ml of plasma equivalents from the UV peak at 32 min"}},
  "data": [
    {"smiles": "CC1OC(OC2CC(O)C3(CO)C4C(O)CC5(C)C(C6=CC(=O)OC6)CCC5(O)C4CCC3(O)C2)C(O)C(O)C1O", "note": "(stereo not drawn) [human ouabain]", "values": [
      {"measurement": "rate of loss of inhibitory activity compared with ouabain", "setting": "[1]", "result": "significantly greater"},
      {"measurement": "cross-reaction with digoxin antibodies", "setting": "digoxin antibodies", "result": "does not cross-react"},
      {"measurement": "affinity higher than that of ouabain", "setting": "(Na^+ +K^+)ATPase [2]", "result": "12-25 fold"},
      {"measurement": "Hill coefficient", "setting": "(Na^+ +K^+)ATPase [3]", "result": -0.97},
      {"measurement": "Kd", "setting": "(Na^+ +K^+)ATPase [3]; read-out: calculated apparent Kd value, 50 nM ouabain, 2 hr at 37° C.", "result": 0.0077, "unit": "µM"},
      {"measurement": "effect on ouabain-insensitive uptake", "setting": "[4]; [9]", "result": "no effect"},
      {"measurement": "inhibition of ouabain-sensitive ^86 Rb uptake", "setting": "[4]; [9]", "result": 80, "unit": "%"},
      {"measurement": "Hill coefficient", "setting": "[4]; inhibition of ouabain-sensitive uptake of ^86 Rb", "result": -0.99},
      {"measurement": "time to plateau of increase in peak force", "setting": "[5]; 85 nM", "result": 34, "unit": "min"},
      {"measurement": "activation at 0.17 µM", "setting": "[5]; Cavia porcellus, read-out: developed force above the control", "result": "294 ± 28", "unit": "%"},
      {"measurement": "apparent half-time for washout of the inotropic response", "setting": "[5]; upon washout", "result": "approximately 5 min"},
      {"measurement": "protein binding in plasma", "setting": "[6]", "result": "not highly protein bound in plasma"},
      {"measurement": "Hill coefficient", "setting": "(Na^+ +K^+)ATPase [7]", "result": -1.28},
      {"measurement": "Kd", "setting": "(Na^+ +K^+)ATPase [7]; read-out: calculated apparent Kd value, 37° C.", "result": 0.0139, "unit": "µM"},
      {"measurement": "substrate for COMT", "setting": "[8]", "result": "not a substrate for COMT"}
    ]}
  ]
}
